Measured values from ChEMBL document CHEMBL3508693 (2016).
Each block holds one molecule with its values, some of them ahead of it.

Legend:
[1] = % aliskiren hemifumarate recovered as M2 from M3 in faeces following single oral dose of 300 mg [14C]SPP100 studied in healthy men; assay type: ADME, organism-based, Feces; settings: human, in vivo, at 300 mg
[2] = % of radioactivity recovered as M2 from M3 in urine following intravenous administration of [14C] aliskiren hemifumarate at 10 mg.Kg-1 level in rat; assay type: ADME, organism-based, Albino HAN:WIST; settings: in vivo
[3] = % aliskiren hemifumarate recovered as M2 from M3 in urine and faeces following single oral dose of 300 mg [14C]SPP100 studied in healthy men; assay type: ADME, organism-based, Urine/Feces; settings: human, in vivo, at 300 mg
[4] = % aliskiren hemifumarate (0-168h) recovered as M2 from M3 in urine following single intravenous dose of [14C] aliskiren hemifumarate at 1 mg.Kg-1 level in marmoset; assay type: ADME, organism-based, Callithrix jacchus; settings: in vivo
[5] = % aliskiren hemifumarate (0-168h) recovered as M2 from M3 in urine following single oral dose of [14C] aliskiren hemifumarate at 3 mg.Kg-1 level in marmoset; assay type: ADME, organism-based, Callithrix jacchus; settings: in vivo
[6] = % of radioactivity recovered as M2 from M3 in faeces following oral administration of [14C] aliskiren hemifumarate at 100 mg.Kg-1 level in rat; assay type: ADME, organism-based, Albino HAN:WIST, Feces; settings: in vivo
[7] = % aliskiren recovered as metabolite M2 in plasma following 10 day repeated oral administration of [14C] aliskiren hemifumarate at 100 mg.Kg-1 level studied in rat; assay type: ADME, organism-based, Albino HAN:WIST; settings: in vivo, 240 h
[8] = % aliskiren recovered as M2 from M3 of receiver rat following duodenal infusion of radioactivity through bile from donor rat treated with single intravenous administration of 10 mg.Kg-1 [14C] aliskiren hemifumarate; assay type: ADME, organism-based, HAN:WIST(SPF); settings: in vivo
[9] = % of radioactivity recovered as M2 from M3 in urine following oral administration of [14C] aliskiren hemifumarate at 100 mg.Kg-1 level in rat; assay type: ADME, organism-based, Albino HAN:WIST; settings: in vivo
[10] = % aliskiren hemifumarate recovered as M2 from M3 in urine following single oral dose of 300 mg [14C]SPP100 studied in healthy men; assay type: ADME, organism-based; settings: human, in vivo, at 300 mg
[11] = % of radioactivity recovered as M2 from M3 in plasma following oral administration of [14C] aliskiren hemifumarate at 100 mg.Kg-1 level in rat; assay type: ADME, organism-based, Albino HAN:WIST; settings: in vivo
[12] = % aliskiren recovered as M2 from M3 in bile following single intravenous administration of 10 mg.Kg-1 [14C] aliskiren hemifumarate in male rat; assay type: ADME, organism-based, HAN:WIST(SPF); settings: in vivo
[13] = % of radioactivity recovered as M2 from M3 in plasma following intravenous administration of [14C] aliskiren hemifumarate at 10 mg.Kg-1 level in rat; assay type: ADME, organism-based, Albino HAN:WIST; settings: in vivo
[14] = % aliskiren hemifumarate (0-72h) recovered as M2 from M3 in faeces following single oral dose of [14C] aliskiren hemifumarate at 3 mg.Kg-1 level in marmoset; assay type: ADME, organism-based, Callithrix jacchus, Feces; settings: in vivo
[15] = % aliskiren recovered as M2 from M3 in urine following single intravenous administration of 10 mg.Kg-1 [14C] aliskiren hemifumarate in male rat; assay type: ADME, organism-based, HAN:WIST(SPF); settings: in vivo
[16] = % aliskiren recovered as metabolite M2 in faeces following 10 day repeated oral administration of [14C] aliskiren hemifumarate at 100 mg.Kg-1 level studied in rat; assay type: ADME, organism-based, Albino HAN:WIST, Feces; settings: in vivo, 240 h
[17] = % aliskiren hemifumarate (0-72h) recovered as M2 from M3 in faeces following single intravenous dose of [14C] aliskiren hemifumarate at 1 mg.Kg-1 level in marmoset; assay type: ADME, organism-based, Callithrix jacchus, Feces; settings: in vivo
[18] = % of radioactivity recovered as M2 from M3 in faeces following intravenous administration of [14C] aliskiren hemifumarate at 10 mg.Kg-1 level in rat; assay type: ADME, organism-based, Albino HAN:WIST, Feces; settings: in vivo
[19] = % aliskiren recovered as M2 from M3 in hydrolysed following single intravenous administration of 10 mg.Kg-1 [14C] aliskiren hemifumarate in male rat; assay type: ADME, organism-based, HAN:WIST(SPF), Bile; settings: in vivo
[20] = % aliskiren recovered as metabolite M2 in urine following 10 day repeated oral administration of [14C] aliskiren hemifumarate at 100 mg.Kg-1 level studied in rat; assay type: ADME, organism-based, Albino HAN:WIST; settings: in vivo, 240 h
[21] = % aliskiren hemifumarate (0-168h) recovered as M4 in urine following single oral dose of [14C] aliskiren hemifumarate at 3 mg.Kg-1 level in marmoset; assay type: ADME, organism-based, Callithrix jacchus; settings: in vivo
[22] = % aliskiren hemifumarate recovered as M4 in urine following single oral dose of 300 mg [14C]SPP100 studied in healthy men; assay type: ADME, organism-based; settings: human, in vivo, at 300 mg
[23] = % aliskiren hemifumarate recovered as M4 in faeces following single oral dose of 300 mg [14C]SPP100 studied in healthy men; assay type: ADME, organism-based, Feces; settings: human, in vivo
[24] = % aliskiren recovered as M4 of receiver rat following duodenal infusion of radioactivity through bile from donor rat treated with single intravenous administration of 10 mg.Kg-1 [14C] aliskiren hemifumarate; assay type: ADME, organism-based, HAN:WIST(SPF); settings: in vivo
[25] = % of radioactivity recovered as M4 in faeces following oral administration of [14C] aliskiren hemifumarate at 100 mg.Kg-1 level in rat; assay type: ADME, organism-based, Albino HAN:WIST, Feces; settings: in vivo
[26] = % aliskiren hemifumarate (0-72h) recovered as M4 in faeces following single intravenous dose of [14C] aliskiren hemifumarate at 1 mg.Kg-1 level in marmoset; assay type: ADME, organism-based, Callithrix jacchus, Feces; settings: in vivo
[27] = % of radioactivity recovered as M4 in plasma following intravenous administration of [14C] aliskiren hemifumarate at 10 mg.Kg-1 level in rat; assay type: ADME, organism-based, Albino HAN:WIST; settings: in vivo
[28] = % aliskiren recovered as M4 in hydrolysed following single intravenous administration of 10 mg.Kg-1 [14C] aliskiren hemifumarate in male rat; assay type: ADME, organism-based, HAN:WIST(SPF), Bile; settings: in vivo
[29] = % of radioactivity recovered as M4 in faeces following intravenous administration of [14C] aliskiren hemifumarate at 10 mg.Kg-1 level in rat; assay type: ADME, organism-based, Albino HAN:WIST, Feces; settings: in vivo
[30] = % aliskiren recovered as M4 in bile following single intravenous administration of 10 mg.Kg-1 [14C] aliskiren hemifumarate in male rat; assay type: ADME, organism-based, HAN:WIST(SPF); settings: in vivo
[31] = % of radioactivity recovered as M4 in plasma following oral administration of [14C] aliskiren hemifumarate at 100 mg.Kg-1 level in rat; assay type: ADME, organism-based, Albino HAN:WIST; settings: in vivo
[32] = % aliskiren recovered as M4 in urine following single intravenous administration of 10 mg.Kg-1 [14C] aliskiren hemifumarate in male rat; assay type: ADME, organism-based, HAN:WIST(SPF); settings: in vivo
[33] = % of radioactivity recovered as M4 in urine following oral administration of [14C] aliskiren hemifumarate at 100 mg.Kg-1 level in rat; assay type: ADME, organism-based, Albino HAN:WIST; settings: in vivo
[34] = % of radioactivity recovered as M4 in urine following intravenous administration of [14C] aliskiren hemifumarate at 10 mg.Kg-1 level in rat; assay type: ADME, organism-based, Albino HAN:WIST; settings: in vivo
[35] = % aliskiren hemifumarate recovered as M4 in urine and faeces following single oral dose of 300 mg [14C]SPP100 studied in healthy men; assay type: ADME, organism-based, Urine/Feces; settings: human, in vivo, at 300 mg
[36] = % aliskiren hemifumarate (0-168h) recovered as M4 in urine following single intravenous dose of [14C] aliskiren hemifumarate at 1 mg.Kg-1 level in marmoset; assay type: ADME, organism-based, Callithrix jacchus; settings: in vivo
[37] = % aliskiren hemifumarate (0-72h) recovered as M4 in faeces following single oral dose of [14C] aliskiren hemifumarate at 3 mg.Kg-1 level in marmoset; assay type: ADME, organism-based, Callithrix jacchus, Feces; settings: in vivo

Compound recovery [1]: 0.5% | Compound recovery [2]: <= 2% | Compound recovery [3]: 0.6% | Compound recovery [4]: 0.1% | Compound recovery [5]: 0.1% | Compound recovery [6]: <= 2% | Compound recovery [8]: 15.4% | Compound recovery [9]: <= 2% | Compound recovery [10]: < 0.1% | Compound recovery [11]: <= 2% | Compound recovery [12]: 7.4% | Compound recovery [13]: <= 2% | Compound recovery [14]: 2% | Compound recovery [15]: 2.9% | Compound recovery [17]: 6% | Compound recovery [18]: > 2% | Compound recovery [19]: 10.2%
SMILES: COc1ccc(C[C@@H](C[C@H](N)[C@@H](O)C[C@H](C(=O)NCC(C)(C)C(N)=O)C(C)C)C(C)C)cc1OCCC(=O)O
Compound recovery [7]: OUTCOME = Observed, VALUE = Minor amounts | Compound recovery [16]: OUTCOME = Observed, VALUE = Minor amounts | Compound recovery [20]: OUTCOME = Observed, VALUE = Minor amounts

Compound recovery [21]: 0% | Compound recovery [22]: < 0.1% | Compound recovery [23]: OUTCOME = Not detected | Compound recovery [24]: OUTCOME = Not detected | Compound recovery [25]: <= 2% | Compound recovery [26]: 2% | Compound recovery [28]: 4.5% | Compound recovery [30]: 1.4% | Compound recovery [31]: <= 2% | Compound recovery [32]: 0.9% | Compound recovery [33]: <= 2% | Compound recovery [35]: < 0.1% | Compound recovery [36]: 0.1% | Compound recovery [37]: 1%
SMILES: COc1ccc(C[C@@H](C[C@H](N)[C@@H](O)C[C@H](C(=O)NCC(C)(C)C(N)=O)C(C)C)C(C)C)cc1O
Compound recovery [27]: OUTCOME = Not detected or not investigated | Compound recovery [29]: OUTCOME = Not detected or not investigated | Compound recovery [34]: OUTCOME = Not detected or not investigated
